Where a SMILES comes first, the peptide text is derived from it. [ ]: non-standard residue; d: D form. The star is where a group is joined. NHCH2CH2OH = OCCN*; For = O=C*

Series [1] can be described thus: H+/Na+ transport assay of bead-derived peptides (one-point).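 Further: relative to parent gramicidin A activity set to 1.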 To be noted: bead-derived peptide solution, EYPC/EYPG LUVs. The class given is biochemical. Also noted: key: relative activity; mean of two control wells = 1.00. An outline of the steps:
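Miniaturized 96-well format. LUVs with entrapped pyranine (1.0 mM) were exposed to peptide for 30 min at RT. Intensities were expressed relative to full lysis by Triton X-100 and no treatment, with control-well mean = 1.00.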

The conditions of series [2]: cell viability/%. An outline of the steps: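 First, library peptide stocks are diluted 250-fold in RPMI1640 with 10% heat-inactivated FBS. Next, they are mixed with P388 cells to give 1 × 10^4 cells/mL and incubated 92 h at 37 °C, 5% CO2. Finally, viability (%) is scored by WST-1 absorbance at 415 nm.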
For series [3], the system named is Streptococcus pyogenes SSI-9. Briefly: Antibacterial activity assay of bead-derived peptides (three concentrations). The class given is cell-based. Also noted: key: +++: inhibition by the 640-fold diluted peptide solution; ++: inhibition by the 160-fold diluted solution; +: inhibition by the 40-fold diluted solution; -: no inhibition. To be noted: S. pyogenes, bead-derived peptide solution, three concentrations. An outline of the steps: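 Three stock dilutions per peptide (none, 4-fold, 16-fold in DMSO) are screened in 96-well format. The medium is blood-supplemented cation-adjusted MHB, inoculated with 2 × 10^5 CFU S. pyogenes SSI-9. Growth is read as cell precipitation at 18 h, 37 °C.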

What is called viability is a per cent measure of how many cells are alive, often set against a control. For the molecule `CC(C)C[C@@H](NC(=O)[C@H](C)NC(=O)[C@H](NC(=O)[C@H](C)NC(=O)CNC(=O)[C@@H](NC=O)C(C)C)[C@H](C)O)C(=O)N[C@H](C(=O)N[C@H](CC(C)C)C(=O)N[C@@H](Cc1c[nH]c2ccccc12)C(=O)N[C@@H](C(=O)N[C@@H](Cc1c[nH]c2ccccc12)C(=O)N[C@@H](C(=O)N[C@@H](Cc1c[nH]c2ccccc12)C(=O)N[C@@H](C(=O)N[C@@H](Cc1c[nH]c2ccccc12)C(=O)NCCO)C(C)C)C(C)C)C(C)C)C(C)C` [compound 1842] (For-VGA[dT]A[dL]V[dL]W[dV]W[dV]W[dV]W-NHCH2CH2OH), the “H+/Na+ transport activity normalized against the value of 1 (1.00)” value (“H+/Na+ transport activity normalized” below) in series [1] was determined as 1.26. Also, in series [2], the viability was determined as 100%. Besides, in series [3], the antibacterial activity result is on record as “-”.
Taken in the same sequence, the figures for `CC(C)C[C@@H](NC(=O)[C@H](C)NC(=O)CNC(=O)[C@@H](NC=O)C(C)C)C(=O)N[C@@H](C)C(=O)N[C@H](CC(C)C)C(=O)N[C@H](C(=O)N[C@H](CC(C)C)C(=O)N[C@@H](Cc1c[nH]c2ccccc12)C(=O)N[C@H](CC(C)C)C(=O)N[C@@H](Cc1c[nH]c2ccccc12)C(=O)N[C@@H](C(=O)N[C@@H](Cc1c[nH]c2ccccc12)C(=O)N[C@H](CC(C)C)C(=O)N[C@@H](Cc1c[nH]c2ccccc12)C(=O)NCCO)[C@H](C)O)C(C)C` [compound 1888] (For-VGA[dL]A[dL]V[dL]W[dL]W[dT]W[dL]W-NHCH2CH2OH) were 1.16, 100% and “-”.
Turning to `CC(C)C[C@@H](NC(=O)[C@H](C)NC(=O)CNC(=O)[C@@H](NC=O)C(C)C)C(=O)N[C@@H](C)C(=O)N[C@@H](C(=O)N[C@H](C(=O)N[C@H](CC(C)C)C(=O)N[C@@H](Cc1c[nH]c2ccccc12)C(=O)N[C@H](CC(C)C)C(=O)N[C@@H](Cc1c[nH]c2ccccc12)C(=O)N[C@@H](C(=O)N[C@@H](Cc1c[nH]c2ccccc12)C(=O)N[C@@H](C(=O)N[C@@H](Cc1c[nH]c2ccccc12)C(=O)NCCO)C(C)C)C(C)C)C(C)C)[C@H](C)O` [compound 1898] (For-VGA[dL]A[dT]V[dL]W[dL]W[dV]W[dV]W-NHCH2CH2OH), the “H+/Na+ transport activity normalized” value in series [1] came to 1.07. The viability in series [2] worked out at 100%. Also, the antibacterial activity entry in series [3] is recorded as “-”.
As for `CC(C)C[C@@H](NC(=O)[C@H](C)NC(=O)CNC(=O)[C@@H](NC=O)C(C)C)C(=O)N[C@@H](C)C(=O)N[C@@H](C(=O)N[C@H](C(=O)N[C@H](CC(C)C)C(=O)N[C@@H](Cc1c[nH]c2ccccc12)C(=O)N[C@H](CC(C)C)C(=O)N[C@@H](Cc1c[nH]c2ccccc12)C(=O)N[C@H](CC(C)C)C(=O)N[C@@H](Cc1c[nH]c2ccccc12)C(=O)N[C@@H](C(=O)N[C@@H](Cc1c[nH]c2ccccc12)C(=O)NCCO)[C@H](C)O)C(C)C)C(C)C` [compound 1975] (For-VGA[dL]A[dV]V[dL]W[dL]W[dL]W[dT]W-NHCH2CH2OH), the “H+/Na+ transport activity normalized” value in series [1] is 1.04. This molecule yielded a viability in series [2] of 100%. For the same molecule, the antibacterial activity result in series [3] is given as “+”.
Taken in the same sequence, the figures for `CC(C)[C@H](NC=O)C(=O)NCC(=O)N[C@@H](C)C(=O)N[C@@H](C(=O)N[C@@H](C)C(=O)N[C@@H](C(=O)N[C@H](C(=O)N[C@@H](C(=O)N[C@@H](Cc1c[nH]c2ccccc12)C(=O)N[C@@H](C(=O)N[C@@H](Cc1c[nH]c2ccccc12)C(=O)N[C@@H](C(=O)N[C@@H](Cc1c[nH]c2ccccc12)C(=O)N[C@@H](C(=O)N[C@@H](Cc1c[nH]c2ccccc12)C(=O)NCCO)[C@H](C)O)C(C)C)C(C)C)C(C)C)C(C)C)C(C)C)C(C)C` [compound 1983] (For-VGA[dV]A[dV]V[dV]W[dV]W[dV]W[dT]W-NHCH2CH2OH) were 1.00, 100% and “-”.
Taken in the same sequence, the figures for `CC(C)C[C@@H](NC(=O)[C@H](Cc1c[nH]c2ccccc12)NC(=O)[C@H](NC(=O)[C@H](Cc1c[nH]c2ccccc12)NC(=O)[C@H](NC(=O)[C@@H](NC(=O)[C@H](NC(=O)[C@H](C)NC(=O)[C@H](NC(=O)[C@H](C)NC(=O)CNC(=O)[C@@H](NC=O)C(C)C)C(C)C)C(C)C)C(C)C)C(C)C)[C@H](C)O)C(=O)N[C@@H](Cc1c[nH]c2ccccc12)C(=O)N[C@@H](C(=O)N[C@@H](Cc1c[nH]c2ccccc12)C(=O)NCCO)C(C)C` [compound 2066] (For-VGA[dV]A[dV]V[dV]W[dT]W[dL]W[dV]W-NHCH2CH2OH) were 1.07, 100% and “-”.
In the case of `CC(C)C[C@@H](NC(=O)[C@H](Cc1c[nH]c2ccccc12)NC(=O)[C@@H](CC(C)C)NC(=O)[C@H](Cc1c[nH]c2ccccc12)NC(=O)[C@H](NC(=O)[C@H](Cc1c[nH]c2ccccc12)NC(=O)[C@@H](CC(C)C)NC(=O)[C@@H](NC(=O)[C@H](NC(=O)[C@H](C)NC(=O)[C@H](NC(=O)[C@H](C)NC(=O)CNC(=O)[C@@H](NC=O)C(C)C)C(C)C)[C@H](C)O)C(C)C)C(C)C)C(=O)N[C@@H](Cc1c[nH]c2ccccc12)C(=O)NCCO` [compound 2085] (For-VGA[dV]A[dT]V[dL]W[dV]W[dL]W[dL]W-NHCH2CH2OH), the “H+/Na+ transport activity normalized” value in series [1] is given as 1.20. Further, in series [2], the viability worked out at 100%. For the same molecule, the antibacterial activity result in series [3] is listed as “-”.
Taken in the same sequence, the figures for `CC(C)C[C@@H](NC(=O)[C@H](C)NC(=O)[C@H](NC(=O)[C@H](C)NC(=O)CNC(=O)[C@@H](NC=O)C(C)C)C(C)C)C(=O)N[C@H](C(=O)N[C@H](CC(C)C)C(=O)N[C@@H](Cc1c[nH]c2ccccc12)C(=O)N[C@H](CC(C)C)C(=O)N[C@@H](Cc1c[nH]c2ccccc12)C(=O)N[C@@H](C(=O)N[C@@H](Cc1c[nH]c2ccccc12)C(=O)N[C@@H](C(=O)N[C@@H](Cc1c[nH]c2ccccc12)C(=O)NCCO)C(C)C)[C@H](C)O)C(C)C` [compound 2117] (For-VGA[dV]A[dL]V[dL]W[dL]W[dT]W[dV]W-NHCH2CH2OH) were 1.15, 100% and “+”.
The corresponding values for `CNC(=O)C[C@@H](NC(=O)[C@@H](NC(=O)[C@H](NC(=O)[C@H](C)NC(=O)[C@@H](CC(C)C)NC(=O)[C@H](C)NC(=O)CNC(=O)[C@@H](NC=O)C(C)C)C(C)C)C(C)C)C(=O)N[C@@H](Cc1c[nH]c2ccccc12)C(=O)N[C@@H](C(=O)N[C@@H](Cc1c[nH]c2ccccc12)C(=O)N[C@H](CC(C)C)C(=O)N[C@@H](Cc1c[nH]c2ccccc12)C(=O)N[C@H](CC(C)C)C(=O)N[C@@H](Cc1c[nH]c2ccccc12)C(=O)NCCO)C(C)C` [compound 2118] (For-VGA[dL]A[dV]V[dD](NHMe)W[dV]W[dL]W[dL]W-NHCH2CH2OH) are 1.26, 100% and “-”.
The corresponding values for `CC(C)C[C@@H](NC(=O)[C@H](C)NC(=O)[C@H](NC(=O)[C@H](C)NC(=O)CNC(=O)[C@@H](NC=O)C(C)C)[C@H](C)O)C(=O)N[C@H](C(=O)N[C@H](CC(C)C)C(=O)N[C@@H](Cc1c[nH]c2ccccc12)C(=O)N[C@@H](C(=O)N[C@@H](Cc1c[nH]c2ccccc12)C(=O)N[C@@H](C(=O)N[C@@H](Cc1c[nH]c2ccccc12)C(=O)N[C@@H](C(=O)N[C@@H](Cc1c[nH]c2ccccc12)C(=O)NCCO)C(C)C)C(C)C)[C@H](C)O)C(C)C` [compound 2139] (For-VGA[dT]A[dL]V[dL]W[dT]W[dV]W[dV]W-NHCH2CH2OH) are 1.05, 100% and “-”.
